Here are results for 2 compounds from publication PMC10341549, “Inhibitory Investigations of Acyl-CoA Derivatives against Human Lipoxygenase Isozymes” (International Journal of Molecular Sciences, 2023).

In one assay the target is T1, h15-LOX-1 (Homo sapiens, UniProt P16050).
T1 construct: His tag; made in house
T1 sequence (P16050 1-662): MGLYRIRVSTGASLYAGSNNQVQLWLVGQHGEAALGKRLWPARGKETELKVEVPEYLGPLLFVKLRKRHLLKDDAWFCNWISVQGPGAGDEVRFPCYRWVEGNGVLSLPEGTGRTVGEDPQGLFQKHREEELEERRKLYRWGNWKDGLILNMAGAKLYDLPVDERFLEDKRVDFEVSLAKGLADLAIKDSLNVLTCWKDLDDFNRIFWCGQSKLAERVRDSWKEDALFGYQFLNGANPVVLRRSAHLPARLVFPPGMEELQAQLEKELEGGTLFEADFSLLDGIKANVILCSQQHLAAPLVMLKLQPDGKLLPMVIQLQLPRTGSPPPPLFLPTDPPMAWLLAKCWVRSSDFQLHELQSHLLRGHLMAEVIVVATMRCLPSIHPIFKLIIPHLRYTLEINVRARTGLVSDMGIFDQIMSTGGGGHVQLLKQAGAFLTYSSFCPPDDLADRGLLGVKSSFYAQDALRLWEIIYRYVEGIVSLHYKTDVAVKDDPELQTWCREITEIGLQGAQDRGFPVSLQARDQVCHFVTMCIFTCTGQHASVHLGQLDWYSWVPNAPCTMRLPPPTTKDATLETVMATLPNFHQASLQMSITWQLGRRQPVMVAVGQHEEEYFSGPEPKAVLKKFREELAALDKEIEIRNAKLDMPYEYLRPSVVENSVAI
Briefly: Substrate activity and kinetic parameters with h15-LOX-1. The class given is biochemical. The settings on record: acyl-CoAs tested at 70 µM, change in absorbance at 234 nm. The procedure: Considering that some of these acyl-CoAs could potentially be substrates for LOX isozymes, each acyl-CoA was tested at 70 µM against each LOX isozyme to establish the possibility of catalysis.
The same buffer as used to determine IC50 values for h5-LOX was used for product determination. Turnover was monitored by absorbance at 234 nm.

The target in a further assay is T2, h15-LOX-2 (Homo sapiens, UniProt O15296).
T2 construct: His tag; made in house
T2 sequence (O15296 1-676): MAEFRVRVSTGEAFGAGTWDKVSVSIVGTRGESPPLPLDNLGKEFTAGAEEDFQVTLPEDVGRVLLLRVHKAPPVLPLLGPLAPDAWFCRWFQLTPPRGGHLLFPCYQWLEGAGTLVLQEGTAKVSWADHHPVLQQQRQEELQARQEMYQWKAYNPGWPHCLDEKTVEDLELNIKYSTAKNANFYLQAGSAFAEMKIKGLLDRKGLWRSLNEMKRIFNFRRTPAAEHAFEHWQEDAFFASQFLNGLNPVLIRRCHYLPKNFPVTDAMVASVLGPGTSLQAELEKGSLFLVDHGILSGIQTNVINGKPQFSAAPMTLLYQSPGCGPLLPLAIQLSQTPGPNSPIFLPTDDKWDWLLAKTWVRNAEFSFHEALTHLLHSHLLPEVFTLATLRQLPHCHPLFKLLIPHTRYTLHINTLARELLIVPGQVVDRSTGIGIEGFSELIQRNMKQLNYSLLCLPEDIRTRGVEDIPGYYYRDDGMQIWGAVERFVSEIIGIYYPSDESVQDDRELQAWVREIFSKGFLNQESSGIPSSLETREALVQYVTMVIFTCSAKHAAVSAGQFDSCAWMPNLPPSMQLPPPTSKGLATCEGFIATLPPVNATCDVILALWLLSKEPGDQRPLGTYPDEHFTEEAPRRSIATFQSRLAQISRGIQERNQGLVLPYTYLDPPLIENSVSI
In words: Kinetic investigation of oleoyl-CoA (18:1) inhibition of h15-LOX-2. Format: biochemical. The procedure:
(1) 1/v=(αKM/kcat)[([I]+Ki)/(β[I]+αKi)]×1/[S]+1/kcat×[([I]+αKi)/(β[I]+αKi)] (2) KM(app)=αKM[([I]+Ki)/[…]] (3) kcat/KM=(kcat/αKM)[(β[I]+αKi)/([I]+Ki)] (4) kcat=kcat[(β[I]+αKi)/([I]+αKi)]
These two parameters were then utilized to fit Equation (3) relative to kcat/KM (app), which yielded a β value of 0.26 +/− 0.23 (Figure 2). Given the high error for the β value, β was also determined by applying the values for α and Ki from the KM (app) plot to Equation 4 and fitted to the kcat data (Figure 3). This fit yielded a β value of 0.30 +/− 0.07, consistent with the Equation 3 fit but with a lower error value. These kinetic values indicate hyperbolic allostery, α > 1 (K-type inhibition) and β < 1 (V-type inhibition), with the kinetic change being equally observed in both KM (α = 3.2 +/− 1) and kcat (β = 0.30 +/− 0.07). […] It should be noted that the Ki values from our hyperbolic fits (82 +/− 70 nM) were dramatically lower than those determined from IC50 measurements (620 ± 60 nM), which is consistent with the more accurate nature of the hyperbolic fits relative to the IC50 fits, due to the oversimplification of the IC50 analysis.
The reactions were carried out in 25 mM HEPES buffer (pH 7.5), 0.01% Triton X-100. […] Reactions were performed at 22 °C in a 1 cm^2 quartz cuvette containing 2 mL of the according buffer for no longer than 2 min to avoid any cleavage of the acyl-coenzyme A. Using a Cary-UV Vis spectrophotometer, the fastest rates over 15 s intervals were recorded. Kinetic values were obtained by plotting the rate against the substrate concentration, followed by a hyperbolic saturation curve fit. The saturation curve fits were performed in triplicate and on separate days to ensure there was no bias. The equations used to find kinetic values were from previous studies.

pKi: −log10 of the molar value. “Also recorded” adds a separate entry of the source.

As for `CCCCC/C=C\C/C=C\CCCCCCCC(=O)SCCNC(=O)CCNC(=O)[C@H](O)C(C)(C)COP(=O)(O)OP(=O)(O)OC[C@H]1O[C@@H](n2cnc3c(N)ncnc32)[C@H](O)[C@@H]1OP(=O)(O)O` [Linoleoyl-CoA (18:2), linoleoyl-CoA], the “Substrate activity with h15-LOX-1” value on h15-LOX-1 is reported as “(Substrate)”; on h15-LOX-1 (listed as linoleoyl-CoA (18:2)), “substrates; also recorded: rapid substrate”.

For orientation: pKi means −log10 of the Ki, conventionally taken in molar units. For `CCCCCCCC/C=C\CCCCCCCC(=O)SCCNC(=O)CCNC(=O)[C@H](O)C(C)(C)COP(=O)(O)OP(=O)(O)OC[C@H]1O[C@@H](n2cnc3c(N)ncnc32)[C@H](O)[C@@H]1OP(=O)(O)O` [Oleoyl-CoA (18:1), oleoyl-coenzyme A (18:1)], at h15-LOX-2, the “Type of inhibition of h15-LOX-2” value is reported as “allosteric inhibition (i.e., partial inhibition)”. The “β (the change in kcat), Equation 4 fit” value at h15-LOX-2 (fit of kcat data) is 0.30 +/− 0.07. Also, at h15-LOX-2 (fit of kcat/KM (app)), the “β (the change in kcat), Equation 3 fit” value is listed as 0.26 +/− 0.23. For the same compound, on h15-LOX-2 (h15-LOX-2, substrate AA, pH 7.5, 22 °C, read-out: Ki (allosteric, hyperbolic fit of KM (app), Equation 2)), the pKi was 7.09.
